Test results: ChEMBL document CHEMBL4342436, “Artemisia: a promising plant for the treatment of cancer” (Bioorg Med Chem, 2020)
Converted amounts (≈) assume the structure as drawn.

Columns and labels:
[1] = test system: HeLa; test: Cytotoxicity against human HeLa cells assessed as reduction in cell viability incubated for 48 hrs by MTT assay; assay type: functional, cell-based
[2] = test system: MCF7; test: Cytotoxicity against human MCF7 cells assessed as reduction in cell viability incubated for 48 hrs by MTT assay; assay type: functional, cell-based; details: MCF7, 48 h
[3] = test system: A549; test: Cytotoxicity against human A549 cells assessed as reduction in cell viability after 48 hrs by MTT assay; assay type: functional, cell-based; details: A549, 48 h
[4] = test system: P388; test: Cytotoxicity against mouse P388 cells assessed as reduction in cell viability after 48 hrs by MTT assay; assay type: functional, cell-based; details: P388, 48 h
[5] = test system: L1210; test: Cytotoxicity against mouse L1210 cells assessed as reduction in cell viability after 48 hrs by MTT assay; assay type: functional, cell-based; details: L1210, 48 h
[6] = test system: HT-29; test: Cytotoxicity against human HT-29 cells assessed as reduction in cell viability after 48 hrs by MTT assay; assay type: functional, cell-based; details: HT-29, 48 h
[7] = test system: SW-620; test: Antitumour activity against human SW620 cells xenografted in mouse assessed as inhibition of tumour growth at 60 mg/kg relative to control; assay type: functional; details: read-out: TGI
[8] = test system: A549; test: Cytotoxicity against human A549 cells by SRB assay; assay type: functional, cell-based
[9] = test system: SK-MEL-2; test: Cytotoxicity against human SK-MEL-2 cells by SRB assay; assay type: functional, cell-based
[10] = test system: SK-OV-3; test: Cytotoxicity against human SKOV3 cells by SRB assay; assay type: functional, cell-based
[11] = test system: XF498; test: Cytotoxicity against human XF498 cells by SRB assay; assay type: functional, cell-based
[12] = test system: HCT-15; test: Cytotoxicity against human HCT15 cells by SRB assay; assay type: functional, cell-based
[13] = test system: HeLa; test: Cytotoxicity against human HeLa cells after 48 hrs by MTT assay; assay type: functional, cell-based
[14] = test system: U-937; test: Cytotoxicity against human U937 cells after 48 hrs by MTT assay; assay type: functional, cell-based; details: U-937, 48 h
[15] = test system: A549; test: Cytotoxicity against human A549 cells after 48 hrs by MTT assay; assay type: functional, cell-based; details: A549, 48 h
[16] = test system: HT-29; test: Cytotoxicity against human HT-29 cells; assay type: functional; details: read-out: ED50 (the source's name)
[17] = test system: P388; test: Cytotoxicity against mouse P388 cells; assay type: functional; details: read-out: ED50 (the source's name)
[18] = test system: MCF7; test: (§1) Cytotoxicity against human MCF7 cells; assay type: functional; details: read-out: ED50 (the source's name)
[19] = test system: KB; test: (§2) Cytotoxicity against human KB cells; assay type: functional; details: read-out: ED50 (the source's name)
[20] = test system: Bel-7402; test: Cytotoxicity against human Bel7402 cells by MTT assay; assay type: functional, cell-based
[21] = test system: A549; test: Cytotoxicity against human A549 cells by MTT assay; assay type: functional, cell-based
[22] = test system: A2780; test: Cytotoxicity against human A2780 cells after 72 hrs by MTT assay; assay type: functional, cell-based; details: A2780, 72 h
[23] = test system: A-431; test: Cytotoxicity against human A431 cells after 72 hrs by MTT assay; assay type: functional, cell-based; details: A-431, 72 h
[24] = test system: HeLa; test: Cytotoxicity against human HeLa cells after 72 hrs by MTT assay; assay type: functional, cell-based
[25] = test system: MCF7; test: Cytotoxicity against human MCF7 cells after 72 hrs by MTT assay; assay type: functional, cell-based; details: MCF7, 72 h
[26] = test system: HepG2; test: Cytotoxicity against human HepG2 cells after 72 hrs by MTT assay; assay type: functional, cell-based; details: HepG2, 72 h
[27] = test system: SH-SY5Y; test: Cytotoxicity against human SH-SY5Y cells after 72 hrs by MTT assay; assay type: functional, cell-based
[28] = Cytotoxicity against mouse S17 cells after 72 hrs by MTT assay; assay type: functional, cell-based; details: S17, 72 h
[29] = test system: HL-60; test: Antiproliferative activity against human HL60 cells assessed as reduction in cell viability after 3 days by XTT assay; assay type: functional, cell-based; details: HL-60, 72 h
[30] = Cytotoxicity against human YD-10B cells assessed as reduction in cell viability after 48 hr by MTT asssay; assay type: functional, cell-based
[31] = test system: HepG2; test: Cytotoxicity against human HepG2 cells; assay type: functional, cell-based
[32] = test system: KB; test: as §2; assay type: functional, cell-based
[33] = test system: LNCaP; test: Cytotoxicity against human LNCAP cells; assay type: functional, cell-based
[34] = test system: MCF7; test: as §1; assay type: functional, cell-based
[35] = test system: SK-MEL-2; test: Cytotoxicity against human SK-MEL-2 cells; assay type: functional, cell-based

SMILES: COc1cc(-c2oc3cc(O)cc(O)c3c(=O)c2OC)cc(O)c1OC
- IC50 [1]: 8.1 to 63.2 µM
- IC50 [2]: 10.3 to 91.9 µM

SMILES: COc1ccc(-c2cc(=O)c3c(O)c(OC)c(OC)cc3o2)cc1OC
- IC50 [1]: 8.1 to 63.2 µM
- IC50 [2]: 10.3 to 91.9 µM

SMILES: C[C@H]1[C@@H](O[C@H](C#N)c2ccc(Br)cc2)O[C@@H]2O[C@@]3(C)CC[C@H]4[C@H](C)CC[C@@H]1[C@@]24OO3
- IC50 [3]: 0.01 to 0.49 µM
- IC50 [4]: 0.01 to 0.49 µM
- IC50 [5]: 0.01 to 0.49 µM
- IC50 [6]: 0.01 to 0.49 µM

SMILES: C[C@H]1[C@@H](O[C@@H](C#N)c2ccc(Br)cc2)O[C@@H]2O[C@@]3(C)CC[C@H]4[C@H](C)CC[C@@H]1[C@@]24OO3
- IC50 [3]: 0.01 to 0.49 µM
- IC50 [4]: 0.01 to 0.49 µM
- IC50 [5]: 0.01 to 0.49 µM
- IC50 [6]: 0.01 to 0.49 µM

SMILES: COc1ccc(-c2cc(=O)c3c(O)c(O)c(OC)cc3o2)cc1OC
- inhibition in vivo at 60 mg/kg [7]: 44.6%

SMILES: CC(C)=CCC[C@H](C)[C@H]1C[C@@H]2OO[C@H]1C=C2C
- IC50 [8]: 0.1 to 0.87 µg/mL (≈ 0.423 to 3.68 µM)
- IC50 [9]: 0.1 to 0.87 µg/mL (≈ 0.423 to 3.68 µM)
- IC50 [10]: 0.1 to 0.87 µg/mL (≈ 0.423 to 3.68 µM)
- IC50 [11]: 0.1 to 0.87 µg/mL (≈ 0.423 to 3.68 µM)
- IC50 [12]: 0.1 to 0.87 µg/mL (≈ 0.423 to 3.68 µM)

SMILES: C=C1C(=O)O[C@H]2[C@H]1[C@@H](OC(=O)C(C)C)CC(C)=C1C[C@@H]3O[C@]3(C)[C@@H]12
- IC50 [13]: 16 to 43.5 µg/mL (≈ 48.1 to 131 µM)
- IC50 [14]: 16 to 43.5 µg/mL (≈ 48.1 to 131 µM)
- IC50 [15]: 16 to 43.5 µg/mL (≈ 48.1 to 131 µM)

SMILES: C=C1C(=O)O[C@@H]2/C=C(\C)[C@@H](OC(=O)[C@@H](C)CC)C/C=C(\C)CC[C@@H]12
- IC50 [13]: 16 to 43.5 µg/mL (≈ 48.1 to 131 µM)
- IC50 [14]: 16 to 43.5 µg/mL (≈ 48.1 to 131 µM)
- IC50 [15]: 16 to 43.5 µg/mL (≈ 48.1 to 131 µM)

SMILES: COc1ccc(-c2oc3cc(OC)c(OC)c(O)c3c(=O)c2O)cc1OC
- EC50 [16]: 1.25 to 9.62 µg/mL (≈ 3.34 to 25.7 µM)
- EC50 [17]: 1.25 to 9.62 µg/mL (≈ 3.34 to 25.7 µM)
- EC50 [18]: 1.25 to 9.62 µg/mL (≈ 3.34 to 25.7 µM)
- EC50 [19]: 1.25 to 9.62 µg/mL (≈ 3.34 to 25.7 µM)

SMILES: COc1cc(-c2cc(=O)c3c(O)c(O)c(OC)cc3o2)ccc1O
- inhibition in vivo at 60 mg/kg [7]: 14.6%

SMILES: C=C1C(=O)O[C@H]2[C@H]1CC[C@@](C)(O)[C@]13O[C@H]1[C@H](Cl)[C@@](C)(O)[C@H]23
- IC50 [20]: 3.3 to 6 µM
- IC50 [21]: 3.3 to 6 µM
- IC50 [22]: 33 to 75 µg/mL (≈ 105 to 238 µM)
- IC50 [23]: 33 to 75 µg/mL (≈ 105 to 238 µM)
- IC50 [24]: 33 to 75 µg/mL (≈ 105 to 238 µM)
- IC50 [25]: 33 to 75 µg/mL (≈ 105 to 238 µM)

SMILES: C=C1C(=O)O[C@H]2[C@H]1[C@@H](OC(=O)/C(C)=C\C)CC(C)=C1C[C@@H]3O[C@]3(C)[C@@H]12
- IC50 [13]: 16 to 43.5 µg/mL (≈ 46.5 to 126 µM)
- IC50 [14]: 16 to 43.5 µg/mL (≈ 46.5 to 126 µM)
- IC50 [15]: 16 to 43.5 µg/mL (≈ 46.5 to 126 µM)

SMILES: CC1=CCC2[C@@H]1[C@H]1OC(=O)[C@@H](C)[C@@H]1C[C@]1(C)O[C@H]21 (some centres undefined)
- IC50 [26]: 229 to 233 µM
- IC50 [27]: 229 to 233 µM
- IC50 [28]: 229 to 233 µM

SMILES: CC(C)=CCC[C@H](C)[C@H]1C[C@H]2OO[C@@H]1C=C2C
- IC50 [8]: 0.2 to 5.43 µg/mL (≈ 0.846 to 23 µM)
- IC50 [9]: 0.2 to 5.43 µg/mL (≈ 0.846 to 23 µM)
- IC50 [10]: 0.2 to 5.43 µg/mL (≈ 0.846 to 23 µM)
- IC50 [11]: 0.2 to 5.43 µg/mL (≈ 0.846 to 23 µM)
- IC50 [12]: 0.2 to 5.43 µg/mL (≈ 0.846 to 23 µM)

SMILES: CC#CC#CCc1ccccc1
- IC50 [29]: 1.1 to 40.7 µg/mL (≈ 7.13 to 264 µM)

SMILES: C[C@H]1[C@@H](CCNC(=O)CC[C@H](NC(=O)CC[C@H]2O[C@@H]3O[C@@]4(C)CC[C@H]5[C@H](C)CC[C@@H]([C@H]2C)[C@@]35OO4)C(=O)NCC[C@H]2O[C@@H]3O[C@@]4(C)CC[C@H]5[C@H](C)CC[C@@H]([C@H]2C)[C@@]35OO4)O[C@@H]2O[C@@]3(C)CC[C@H]4[C@H](C)CC[C@@H]1[C@@]24OO3
- IC50 [30]: 6 µM

SMILES: COc1cc2ccc(=O)oc2c(OC)c1O
- IC50 [8]: 0.4 to 26.8 µg/mL (≈ 1.8 to 121 µM)
- IC50 [9]: 0.4 to 26.8 µg/mL (≈ 1.8 to 121 µM)
- IC50 [10]: 0.4 to 26.8 µg/mL (≈ 1.8 to 121 µM)
- IC50 [11]: 0.4 to 26.8 µg/mL (≈ 1.8 to 121 µM)
- IC50 [12]: 0.4 to 26.8 µg/mL (≈ 1.8 to 121 µM)

SMILES: C=C1C(=O)O[C@H]2[C@H]1CC[C@@](C)(O)C1=C[C@H](O)[C@@](C)(O)[C@@H]12
- IC50 [31]: > 100 µM
- IC50 [32]: > 100 µM
- IC50 [33]: > 100 µM
- IC50 [34]: > 100 µM
- IC50 [35]: > 100 µM

SMILES: C=C1C(=O)O[C@H](C2=C(C)[C@@H](OC)CC2=O)[C@H]1CCC(C)=O
- IC50 [22]: 33 to 75 µg/mL (≈ 113 to 257 µM)
- IC50 [23]: 33 to 75 µg/mL (≈ 113 to 257 µM)
- IC50 [24]: 33 to 75 µg/mL (≈ 113 to 257 µM)
- IC50 [25]: 33 to 75 µg/mL (≈ 113 to 257 µM)

SMILES: C=C1C(=O)O[C@H]2[C@H]1[C@@H](OC(C)=O)CC(=C)[C@]1(O)C[C@H](Cl)[C@@](C)(O)[C@H]21
- IC50 [20]: 3.3 to 6 µM
- IC50 [21]: 3.3 to 6 µM
